Tests used:
Assay in all cases: relative viability (nuclei count vs DMSO), 5 days (fraction); higher = more cells survive
COR-L 105 = test system: COR-L 105
Procedure, shortened: (§1)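 After 5 days of treatment, lung cancer cells in 1536-well plates were fixed and stained in a single step (final 0.05% Triton X-100, 1% formaldehyde, 1 ug/ml Hoechst) and their nuclei counted on 4× images. Treatment had been applied by pin tool the day after seeding as one drug alone or as a fixed anchor-drug dose with five library-drug doses (not always all listed) in √10 steps. Relative viability is the nuclei count of treated wells divided by that of vehicle wells, and values are medians of duplicate plates.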

COR-L23 = test system: COR-L23
Procedure, shortened: as §1

HARA = test system: HARA
Procedure, shortened: as §1

HCC-15 = test system: HCC-15
Procedure, shortened: as §1

HOP-62 = test system: HOP-62
Procedure, shortened: as §1

NCI-H1355 = test system: NCI-H1355
Procedure, shortened: as §1

NCI-H1395 = test system: NCI-H1395
Procedure, shortened: as §1

NCI-H1734 = test system: NCI-H1734
Procedure, shortened: as §1

NCI-H1755 = test system: NCI-H1755
Procedure, shortened: as §1

NCI-H1792 = test system: NCI-H1792
Procedure, shortened: as §1

NCI-H1793 = test system: NCI-H1793
Procedure, shortened: as §1

NCI-H1993 = test system: NCI-H1993
Procedure, shortened: as §1

NCI-H2009 = test system: NCI-H2009
Procedure, shortened: as §1

NCI-H2170 = test system: NCI-H2170
Procedure, shortened: as §1

NCI-H2228 = test system: NCI-H2228
Procedure, shortened: as §1

NCI-H2347 = test system: NCI-H2347
Procedure, shortened: as §1

NCI-H358 = test system: NCI-H358
Procedure, shortened: as §1

NCI-H522 = test system: NCI-H522
Procedure, shortened: as §1

NCI-H647 = test system: NCI-H647
Procedure, shortened: as §1

NCI-H838 = test system: NCI-H838
Procedure, shortened: as §1

SK-MES-1 = test system: SK-MES-1
Procedure, shortened: as §1

UMC-11 = test system: UMC-11
Procedure, shortened: as §1

Nc1ccn([C@@H]2O[C@H](CO)[C@@H](O)[C@@H]2O)c(=O)n1 [Cytarabine] + N=C(N)NC(=N)NCCc1ccccc1 [Phenformin] (partner 250 µM) showed a relative viability (COR-L 105; first compound 0.005 µM) of 0.428, a relative viability (COR-L 105; first compound 0.01581 µM) of 0.504 and a relative viability (COR-L 105; first compound 0.05 µM) of 0.43. For the same molecule, the relative viability (COR-L 105; first compound 0.1581 µM) was 0.29, the relative viability (COR-L 105; first compound 0.5 µM) was 0.259 and the relative viability (COR-L23; first compound 0.005 µM) was 0.328. For the same molecule, the relative viability (COR-L23; first compound 0.01581 µM) was 0.325, the relative viability (COR-L23; first compound 0.05 µM) was 0.3 and the relative viability (COR-L23; first compound 0.1581 µM) was 0.146. It also gave a relative viability (COR-L23; first compound 0.5 µM) of 0.137, a relative viability (HARA; first compound 0.005 µM) of 0.359 and a relative viability (HARA; first compound 0.01581 µM) of 0.325. The relative viability (HARA; first compound 0.05 µM) was 0.296, the relative viability (HARA; first compound 0.1581 µM) was 0.196 and the relative viability (HARA; first compound 0.5 µM) was 0.0852. The relative viability (HCC-15; first compound 0.005 µM) was 0.454, the relative viability (HCC-15; first compound 0.01581 µM) was 0.436 and the relative viability (HCC-15; first compound 0.05 µM) was 0.516. For the same molecule, the relative viability (HCC-15; first compound 0.1581 µM) was 0.349, the relative viability (HCC-15; first compound 0.5 µM) was 0.31 and the relative viability (HOP-62; first compound 0.005 µM) was 0.506. The relative viability (HOP-62; first compound 0.01581 µM) was 0.486, the relative viability (HOP-62; first compound 0.05 µM) was 0.399 and the relative viability (HOP-62; first compound 0.1581 µM) was 0.156. The relative viability (HOP-62; first compound 0.5 µM) was 0.152, the relative viability (NCI-H1355; first compound 0.005 µM) was 0.353 and the relative viability (NCI-H1355; first compound 0.01581 µM) was 0.428. It also gave a relative viability (NCI-H1355; first compound 0.05 µM) of 0.382, a relative viability (NCI-H1355; first compound 0.1581 µM) of 0.254 and a relative viability (NCI-H1355; first compound 0.5 µM) of 0.261. The relative viability (NCI-H1395; first compound 0.005 µM) was 0.411, the relative viability (NCI-H1395; first compound 0.01581 µM) was 0.392 and the relative viability (NCI-H1395; first compound 0.05 µM) was 0.353. For the same molecule, the relative viability (NCI-H1395; first compound 0.1581 µM) was 0.319, the relative viability (NCI-H1395; first compound 0.5 µM) was 0.31 and the relative viability (NCI-H1734; first compound 0.005 µM) was 0.322. For the same molecule, the relative viability (NCI-H1734; first compound 0.01581 µM) was 0.219, the relative viability (NCI-H1734; first compound 0.05 µM) was 0.191 and the relative viability (NCI-H1734; first compound 0.1581 µM) was 0.155. For the same molecule, the relative viability (NCI-H1734; first compound 0.5 µM) was 0.155, the relative viability (NCI-H1755; first compound 0.005 µM) was 0.621 and the relative viability (NCI-H1755; first compound 0.01581 µM) was 0.413. It also gave a relative viability (NCI-H1755; first compound 0.05 µM) of 0.466, a relative viability (NCI-H1755; first compound 0.1581 µM) of 0.274 and a relative viability (NCI-H1755; first compound 0.5 µM) of 0.236. For the same molecule, the relative viability (NCI-H1792; first compound 0.01581 µM) was 0.107, the relative viability (NCI-H1792; first compound 0.05 µM) was 0.16 and the relative viability (NCI-H1792; first compound 0.1581 µM) was 0.196. For the same molecule, the relative viability (NCI-H1792; first compound 0.5 µM) was 0.133, the relative viability (NCI-H1793; first compound 0.005 µM) was 0.359 and the relative viability (NCI-H1793; first compound 0.01581 µM) was 0.34. The relative viability (NCI-H1793; first compound 0.05 µM) was 0.284, the relative viability (NCI-H1793; first compound 0.1581 µM) was 0.251 and the relative viability (NCI-H1793; first compound 0.5 µM) was 0.216. For the same molecule, the relative viability (NCI-H1993; first compound 0.005 µM) was 0.588, the relative viability (NCI-H1993; first compound 0.01581 µM) was 0.483 and the relative viability (NCI-H1993; first compound 0.05 µM) was 0.529. The relative viability (NCI-H1993; first compound 0.1581 µM) was 0.515, the relative viability (NCI-H1993; first compound 0.5 µM) was 0.422 and the relative viability (NCI-H2009; first compound 0.005 µM) was 0.42. It also gave a relative viability (NCI-H2009; first compound 0.01581 µM) of 0.503, a relative viability (NCI-H2009; first compound 0.05 µM) of 0.455 and a relative viability (NCI-H2009; first compound 0.1581 µM) of 0.386. The relative viability (NCI-H2009; first compound 0.5 µM) was 0.268, the relative viability (NCI-H2170; first compound 0.005 µM) was 0.328 and the relative viability (NCI-H2170; first compound 0.01581 µM) was 0.321. The relative viability (NCI-H2170; first compound 0.05 µM) was 0.25, the relative viability (NCI-H2170; first compound 0.1581 µM) was 0.218 and the relative viability (NCI-H2170; first compound 0.5 µM) was 0.205. It also gave a relative viability (NCI-H2228; first compound 0.005 µM) of 0.25, a relative viability (NCI-H2228; first compound 0.01581 µM) of 0.197 and a relative viability (NCI-H2228; first compound 0.05 µM) of 0.182. For the same molecule, the relative viability (NCI-H2228; first compound 0.1581 µM) was 0.118, the relative viability (NCI-H2228; first compound 0.5 µM) was 0.112 and the relative viability (NCI-H2347; first compound 0.005 µM) was 0.381. The relative viability (NCI-H2347; first compound 0.01581 µM) was 0.383, the relative viability (NCI-H2347; first compound 0.05 µM) was 0.296 and the relative viability (NCI-H2347; first compound 0.1581 µM) was 0.273. It also gave a relative viability (NCI-H2347; first compound 0.5 µM) of 0.291, a relative viability (NCI-H358; first compound 0.005 µM) of 0.235 and a relative viability (NCI-H358; first compound 0.01581 µM) of 0.2. The relative viability (NCI-H358; first compound 0.05 µM) was 0.222, the relative viability (NCI-H358; first compound 0.1581 µM) was 0.0765 and the relative viability (NCI-H358; first compound 0.5 µM) was 0.076. It also gave a relative viability (NCI-H522; first compound 0.005 µM) of 0.669, a relative viability (NCI-H522; first compound 0.01581 µM) of 0.602 and a relative viability (NCI-H522; first compound 0.05 µM) of 0.554. For the same molecule, the relative viability (NCI-H522; first compound 0.1581 µM) was 0.489, the relative viability (NCI-H522; first compound 0.5 µM) was 0.449 and the relative viability (NCI-H647; first compound 0.005 µM) was 0.181. For the same molecule, the relative viability (NCI-H647; first compound 0.01581 µM) was 0.204, the relative viability (NCI-H647; first compound 0.05 µM) was 0.193 and the relative viability (NCI-H647; first compound 0.1581 µM) was 0.0662. It also gave a relative viability (NCI-H647; first compound 0.5 µM) of 0.0608, a relative viability (NCI-H838; first compound 0.005 µM) of 0.482 and a relative viability (NCI-H838; first compound 0.01581 µM) of 0.532. It also gave a relative viability (NCI-H838; first compound 0.05 µM) of 0.422, a relative viability (NCI-H838; first compound 0.1581 µM) of 0.241 and a relative viability (NCI-H838; first compound 0.5 µM) of 0.201. The relative viability (SK-MES-1; first compound 0.005 µM) was 0.44, the relative viability (SK-MES-1; first compound 0.01581 µM) was 0.389 and the relative viability (SK-MES-1; first compound 0.05 µM) was 0.212. For the same molecule, the relative viability (SK-MES-1; first compound 0.1581 µM) was 0.206, the relative viability (SK-MES-1; first compound 0.5 µM) was 0.178 and the relative viability (UMC-11; first compound 0.005 µM) was 0.245. For the same molecule, the relative viability (UMC-11; first compound 0.01581 µM) was 0.232, the relative viability (UMC-11; first compound 0.05 µM) was 0.205 and the relative viability (UMC-11; first compound 0.1581 µM) was 0.195. For the same molecule, the relative viability (UMC-11; first compound 0.5 µM) was 0.159.
